The experiment concerns heart. Briefly: In vivo swine study of carbachol alone vs carbachol plus propranolol, intracoronary, to induce ventricular asystole. The settings on record: individual swine. Here is the method: Eleven male crossbred swine weighing 20-25 kg were studied, eight of which received carbachol alone and three of which received carbachol plus propranolol. The swine were sedated using 10 mg/kg IV ketamine. After 20 minutes, the animals were induced with 10 mg/kg IV thiopental sodium and orotracheally intubated. The proper anesthetic plane was maintained with 1% Isoflurane. Periodic arterial blood gas samples were obtained to guide ventilator management. The electrocardiograph was continuously monitored. Through a 7 Fr sheath in the left femoral artery, arterial blood samples were obtained and a micromanometer was inserted to monitor central aortic blood pressure (Millar Instruments, Inc., Houston, Tex.). The heart was exposed through a median sternotomy and suspended in a pericardial cradle. Two temporary epicardial pacing wires were affixed to the right ventricle and connected to an external pacemaker (Medtronic, Inc., Minneapolis, Minn.). The pacemaker was modified to permit deactuation by means of depressing a foot pedal. Through the femoral sheath, an AR-1 guide (Cordis Corp., Miami Lakes, Fla.) was placed into the right coronary artery. An 0.014-inch floppy guide wire was then advanced into the right coronary artery to the level of the posterior descending coronary artery. The AR-1 guide was removed and a 2.5 Fr Tracker (Cordis Corp., Miami Lakes, Fla.) catheter was inserted over the guide wire. Using dye injection, the catheter was positioned just proximal to the take-off of the atrioventricular node artery. Carbachol (Sigma St. Louis, Mo.) solution was prepared the day of the experiment and infused at a constant rate using a Harvard pump.
Animals received either carbachol alone or carbachol in combination with propranolol (Inderal®, Wyeth Ayerst, Philadelphia, Pa.). All animals were instrumented and allowed 10 minutes of hemodynamic stability. Before carbachol was administered, each subject received a 500 ml IV bolus of 0.9% sodium chloride.
In the animals receiving carbachol plus propranolol, a 1 mg dose of propranolol (0.04-0.05 mg/kg) was administered through the Tracker catheter. Carbachol was then administered as a 0.5 mg intracoronary bolus (0.02 mg/kg) followed by a constant infusion. […] After carbachol-mediated ventricular asystole was observed, the heart was paced at 100 beats/minute. […] The systolic blood pressure (SBP), diastolic blood pressure (DBP), and […] arterial pressure (MAP) were recorded every five minutes. The duration of ventricular asystole, defined in this example as a heart rate less than twelve beats per minute, was recorded. […] After 75 minutes, the carbachol infusion was stopped and the time required to return to normal sinus rhythm was recorded.

Data on 1 compound can be found in patent US6711436B1, “Compositions, apparatus and methods for facilitating surgical procedures” (priority 1997, dated 2004).

Where “and” joins values, the source holds several entries; their conditions need not be identical. Identical values can stand only once.

In the case of `C[N+](C)(C)CCOC(N)=O.[Cl-]` [carbachol, carbamyl choline chloride], the “time to NSR (normal sinus rhythm)” value (after carbachol infusion was stopped (after 75 minutes)) is 8 min and 3 min. For the same compound, the “duration of ventricular asystole” value (asystole defined as heart rate less than twelve beats per minute, pacemaker turned off 5 s at 60-second intervals) is 87 min and 75 min (2×) and 53 min and 24 min and 76 min (2×) and 47 min. Besides, the “carbachol dose (infusion rate per body weight) achieving ventricular asystole” value (intracoronary infusion) was 86.0 μg/kg/min and 12.2 μg/kg/min and 9.7 μg/kg/min and 20.9 μg/kg/min and 41.9 μg/kg/min and 10.7 μg/kg/min (2×) and 31.0 μg/kg/min. Moreover, the “infusion rate of carbachol necessary to achieve ventricular asystole” value (intracoronary infusion, doses increased until ventricular asystole observed, combination arm: 1 mg propranolol then 0.5 mg carbachol bolus before infusion) is 1.72 mg/min and 0.44 mg/min (5×) and 0.88 mg/min and 0.62 mg/min.
